# Measured values taken from patent EP0166969A2, “Haemostyptic” (priority 1984, dated 1986).
# “Also recorded” adds a separate entry of the source.
# What was measured:
# Schweineleber = experiment: Comparative haemostyptic efficacy of components, mixtures and esters in rat models and pig liver; type: in vivo, Ratten; settings: qualitative
# Description: Unter einem Hämostypticum versteht man Mittel zur Blutstillung, die sowohl die Blutungszeit als auch den Blutverlust bei mechanischen Verletzungen herabsetzen. Die Blutgerinnung ist ein in den letzten Jahren intensiv untersuchter komplexer Vorgang, der sich in verschiedenster Weise beeinflussen läßt. Die Blutstillung und der Blutverlust hängen wiederum in erster Linie vom Umfang und der Geschwindigkeit der Blutgerinnung ab, jedoch spielen hier auch noch weitere Faktoren mit hinein, die bisher noch nicht ausreichend untersucht und geklärt werden konnten. Eine besondere Schwierigkeit bei der Untersuchung von Hämostyptica ist die Erarbeitung von zuverlässigen und reproduzierbaren Versuchsbedingungen am Menschen und am Tier. Eine umfassende Zusammenstellung der bisher bekannten Methoden sowie die Beschreibung einer verbesserten Methode an der Ratte wird beschrieben in der Dissertation von Ennen 1981, am Institut für Pharmakologie, Toxikologie und Pharmazie der Tierärtzlichen Hochschule Hannover unter Leitung von Prof. Dr. K. Kaemmerer (Methodenbeitrag zur Bestimmung von Blutungszeit und Blutverlust bei Leberparenchymblutungen kleiner Versuchstiere). Im Rahmen dieser Untersuchungen wurden auch verschiedene bekannte Hämostasesysteme vergleichend untersucht. Zu den untersuchten Produkten gehörte auch das Hämostypticum Revici, welches von der Anmelderin seit Jahren vertrieben wird. […] Das Hämostypticum Revici enthält neben geringen Mengen von Zitronensäure, Wasserstoffperoxid und n-Butanol. […] Dabei dienten als Modelle in erster Linie die bereits von Ennen entwickelten Tiermodelle der Ratten sowie ähnliche Versuche an der Schweineleber. Die Untersuchungen wurden zusätzlich ausgedehnt auf mögliche Metaboliten und Zersetzungsprodukte der Zitronensäure, nämlich Cis-Aconitsäure, Acetondicarbonsäure und Itakonsäure.
# [1] = Toxicity of the new esters (test not described); settings: qualitative
# Rattenleber = experiment: Bleeding time and blood loss in rats according to Ennen (1981), liver parenchymal bleeding; type: in vivo, Ratten; settings: tested oral and IV, standard solutions suspended in 0,9% saline, route of the values not stated
# Description: Unter einem Hämostypticum versteht man Mittel zur Blutstillung, die sowohl die Blutungszeit als auch den Blutverlust bei mechanischen Verletzungen herabsetzen. Die Blutgerinnung ist ein in den letzten Jahren intensiv untersuchter komplexer Vorgang, der sich in verschiedenster Weise beeinflussen läßt. Die Blutstillung und der Blutverlust hängen wiederum in erster Linie vom Umfang und der Geschwindigkeit der Blutgerinnung ab, jedoch spielen hier auch noch weitere Faktoren mit hinein, die bisher noch nicht ausreichend untersucht und geklärt werden konnten. Eine besondere Schwierigkeit bei der Untersuchung von Hämostyptica ist die Erarbeitung von zuverlässigen und reproduzierbaren Versuchsbedingungen am Menschen und am Tier. Eine umfassende Zusammenstellung der bisher bekannten Methoden sowie die Beschreibung einer verbesserten Methode an der Ratte wird beschrieben in der Dissertation von Ennen 1981, am Institut für Pharmakologie, Toxikologie und Pharmazie der Tierärtzlichen Hochschule Hannover unter Leitung von Prof. Dr. K. Kaemmerer (Methodenbeitrag zur Bestimmung von Blutungszeit und Blutverlust bei Leberparenchymblutungen kleiner Versuchstiere). Im Rahmen dieser Untersuchungen wurden auch verschiedene bekannte Hämostasesysteme vergleichend untersucht. Zu den untersuchten Produkten gehörte auch das Hämostypticum Revici, welches von der Anmelderin seit Jahren vertrieben wird. […] Das Hämostypticum Revici enthält neben geringen Mengen von Zitronensäure, Wasserstoffperoxid und n-Butanol. Da bei der Anwendung des Hämostypticums Revici immer wieder schwankende und nicht immer reproduzierbare Ergebnisse beobachtet wurden, wurden eingehende Untersuchungen über die Wirksamkeit aller drei Komponenten und Gemische derselben auf ihre Wirksamkeit hin untersucht. Dabei dienten als Modelle in erster Linie die bereits von Ennen entwickelten Tiermodelle der Ratten sowie ähnliche Versuche an der Schweineleber. Die Untersuchungen wurden zusätzlich ausgedehnt auf mögliche Metaboliten und Zersetzungsprodukte der Zitronensäure, nämlich Cis-Aconitsäure, Acetondicarbonsäure und Itakonsäure.
# Die Wirksamkeit der Substanzen wurde sowohl oral als auch IV getestet mit Standardlösungen suspendiert in 0,9%-iger Kochsalzlösung bei Ratten nach Ennen (1981). Gemessen wurden Blutungszeit und Blutverlust in % der Abnahme. Tributylcitrat ergab eine Abnahme der Blutungszeit von 27% und eine Abnahme des Blutverlustes von 44%. Die entsprechenden Werte für Trihexylcitrat lagen bei 20 bzw. 24%. Die Werte für Aconit-tributylester bei 22 bzw. 16% und für Tricarballylsäure-tributylester bei 29 bzw. 8%.
# Ratte [2] = settings: rat, in vivo, iv
# Experimental: (§1) Hierbei ist zu beachten, daß bei der Ratte als maximale Volumenbelastung 20 ml/kg gelten.
# Ratte [3] = experiment: Acute toxicity (LD50, oral tolerance) in the rat; type: in vivo
# Experimental: as §1
# [4] = Acute toxicity (LD50, oral tolerance) in the rat; type: in vivo; settings: in vivo, applicant's own experiments
# Experimental: as §1
# Schweine = experiment: Pig experiments: circulatory effect; type: in vivo; settings: pigs; amount of n-Butanol present in Hämostypticum Revici, given alone
# Description: Bei den Schweineversuchen hat sich beispielsweise gezeigt, daß die im Hämostypticum Revici vorhandene Menge n-Butanol für sich allein schon zu Kreislaufdepressionen führt. […] Die Wirksamkeit kann daher nicht dadurch erklärt werden, daß das TBC im Körper zu Zitronensäure und n-Butanol gespalten wird.
# Ratte [5] = settings: rat; Merck Index, 10th ed., no. 1513; cited from earlier work
Compound,hämostyptische Wirksamkeit (Schweineleber),Toxizität [1],Abnahme der Blutungszeit (Rattenleber),Abnahme des Blutverlustes (Rattenleber),further results
O=C(O)CC(=O)CC(=O)O [Acetondicarbonsäure],praktisch wirkungslos,,,,
CCCCOC(=O)C=C(CC(=O)OCCCC)C(=O)OCCCC [Aconit-tributylester],durchaus interessante und für die Praxis brauchbare Wirkung,niedriger Toxizität,22%,16%,
O=C(O)/C=C(/CC(=O)O)C(=O)O [Cis-Aconitsäure],praktisch wirkungslos,,,,
C=C(CC(=O)O)C(=O)O [Itakonsäure],praktisch wirkungslos,,,,
"CCCCOC(=O)CC(O)(CC(=O)OCCCC)C(=O)OCCCC [TBC, Tri-n-butylcitrat]",,,27%,44%,"spontaner Exitus nach Infusion (Ratte [2]): 19,4 ml/kg; akute oder klinische manifeste Veränderungen (Ratte [3]; oral 10 ml/kg (printed as 10,4 mg/kg)): keinerlei akute oder klinische manifeste Veränderungen; akute oder klinische manifeste Veränderungen (Ratte [3]; oral 20 ml/kg (printed as 20,8 mg/kg)): keinerlei akute oder klinische manifeste Veränderungen; LD50 [4]: 20800 mg/kg"
CCCCOC(=O)CC(CC(=O)OCCCC)C(=O)OCCCC [Tricarballylsäure-tributylester],durchaus interessante und für die Praxis brauchbare Wirkung,niedriger Toxizität,29%,8%,
CCCCCCOC(=O)CC(O)(CC(=O)OCCCCCC)C(=O)OCCCCCC [Trihexylcitrat],,niedriger Toxizität,20%,24%,
O=C(O)CC(O)(CC(=O)O)C(=O)O [Zitronensäure],praktisch wirkungslos,,,,
CCCCO [n-Butanol],eine gewisse hämostyptische Wirksamkeit; also recorded: einen gewissen Effekt,,,,"Kreislaufwirkung (Schweine): Kreislaufdepressionen; LD50 (Ratte [5]): 4,36 g/kg"
Wasserstoffperoxid [H202],einen gewissen Effekt,,,,
